Measurements: US9315534B2, “Radiologic agents for monitoring alzheimer's disease progression and Evaluating a Response to Therapy and processes for the preparation of such agents” (BOARD OF REGENTS OF THE UNIVERSITY OF NEBRASKA, priority 2007, dated 2016)

What was measured:
[1] = target: T1, BChE (Mus musculus, UniProt Q03311); conditions: IV 0.5 mCi, 48 hours
Description: FIG. 7 provides images of microautoradiography of brain sections of AD mouse treated with IV dose of 0.5 mCi 3. Mouse was killed 48 hours after the administration of 3. Counterstained H&E; 10×.
FIG. 8 provides a microautoradiography of brain sections of the matching control mouse also treated with IV doses of 0.5 mCi 3. Mouse was killed 48 hours after the administration of 3. Counterstained H&E; 10×.
FIG. 9 provides an image of a section of brain from control mouse treated with 3 48 hours before necropsy. 100×; H&E.
FIG. 10 provides images of brain sections from AD mouse 48 hours after IV dose of 0.5 mCi 3. […] FIG. 10D: Cross-section of a blood vessel containing red blood cells surrounded by silver grains corresponding to circulating 3.
FIG. 8 is the corresponding section of a brain from a matched control mouse treated in the same manner. […] Imperfections in focus are because brain sections and silver grains are in different planes, tissue section vs. emulsion.

[2] = target: T1, BChE
Description: Biodistribution studies were also conducted on 3, another BChE-binding derivative, in AD mouse and in normal controls. This study of 3 was conducted in >12-months old AD mice and matching control mice. All mice received IV 10 μCi of 3. Mice were killed 48 hours later. Tissues were collected and their radioactive content determined in a γ counter. One-half of each brain was fixed. The radioactivity in the other half was counted in a γ counter.

[3] = target: AChE (Bos taurus, UniProt P23795); conditions: SDS-PAGE autoradiogram
Description: Lanes 1, 2: BChE-containing mouse serum incubated with 2a in (1) PBS+DMSO; (2) PBS+0.1% Triton X100+DMSO. Lanes 3-5: AChE-only containing bovine serum incubated with 2a in (3) DMSO; (4) PBS+DMSO; (5) PBS+0.1% Triton X-100+DMSO.

[4] = target: T1, BChE; conditions: for activity in head of AD mouse, planar image: 1 hour after tail vein IV 0.5 mCi
Description: Two sets of preliminary biodistribution studies were conducted: (1) in normal athymic mice to determine general biodistribution and the brain uptake; and (2) in at least ˜7-14 months old APPswe mice (strain B6C3-Tg(APPswe,PSEN1dE9)85 Dbo/J; abbreviated as AD mice in the text below). JAX® GEMM® Strain wildtype mice from the colony were used as the control. B6C3-Tg(APPswe,PSEN1dE9) 85 Dbo/J is a double transgenic mice expressing chimeric mouse/human amyloid precursor protein(Mo/Hu APP695swe) and a mutant human presenilin 1(PS1-dE9) both directed to CNS neurons. Both mutations are associated with the early onset AD. Aβ plaques are produced in these mice in hippocampus and cortex by 9 months of age with the occasional deposits found in mice as young as 6 months of age (Jankowsky et al. (2004) Hum. Mol. Genet., 13:159-70; Garcia-Alloza et al. (2006) Neurobiol. Dis., 24:516-524). Planar imaging was done using a pinhole gamma camera. […] In both images mice are positioned with the dorsal surface of the mouse facing the pinhole collimator. […] There were 6 mice per each time point.

[5] = Solubility in water, buffers and physiologically appropriate solvents
[6] = Partition coefficient, shake-tube method, 1-octanol and water; format: physicochemical; conditions: 1-octanol/water; for Partition coefficient P avg (std dev): 19° C., 125I-labeled pure diastereomers
From the text: In order to reach intracerebral targets, drugs developed for diagnosis of the AD must be able to cross two barriers separating the central nervous system (CNS) from the periphery (Hansch et al. (1987) J. Pharm. Sci., 76:663-87.), the blood-brain barrier and the blood-cerebrospinal fluid barrier. Therefore the preliminary evaluation of the new drugs included partition coefficients. CNS agents that are highly lipid soluble with the log octanol-water partition coefficient between 1 and 3 have the equilibration half-times that are proportional to brain solubility (Atkinson et al. (2002) Curr. Med. Chem., 2:229-40; Dutta et al. (1998) Br. J. Anaesth., 81:422-4; Buchwald et al. (1998) Curr. Med. Chem., 5:353-80). Only pure SP and RP diastereomers were used. Ten μCi of each ^125I-labeled compound was added to 3 mL of water, the mixture was vortexed and 1-mL aliquots were transferred into fresh tubes. To each tube 1 mL of 1-octanol was added and the mixtures were vigorously vortexed until a homogenous suspension formed. At this point, the organic and water layers were separated by centrifugation at 19° C. Aliquots of each phase were gently removed and counted in a gamma counter in a triplicate. Typically, each KP was calculated as an average of n≧18.

T1 sequence (Q03311 30-603): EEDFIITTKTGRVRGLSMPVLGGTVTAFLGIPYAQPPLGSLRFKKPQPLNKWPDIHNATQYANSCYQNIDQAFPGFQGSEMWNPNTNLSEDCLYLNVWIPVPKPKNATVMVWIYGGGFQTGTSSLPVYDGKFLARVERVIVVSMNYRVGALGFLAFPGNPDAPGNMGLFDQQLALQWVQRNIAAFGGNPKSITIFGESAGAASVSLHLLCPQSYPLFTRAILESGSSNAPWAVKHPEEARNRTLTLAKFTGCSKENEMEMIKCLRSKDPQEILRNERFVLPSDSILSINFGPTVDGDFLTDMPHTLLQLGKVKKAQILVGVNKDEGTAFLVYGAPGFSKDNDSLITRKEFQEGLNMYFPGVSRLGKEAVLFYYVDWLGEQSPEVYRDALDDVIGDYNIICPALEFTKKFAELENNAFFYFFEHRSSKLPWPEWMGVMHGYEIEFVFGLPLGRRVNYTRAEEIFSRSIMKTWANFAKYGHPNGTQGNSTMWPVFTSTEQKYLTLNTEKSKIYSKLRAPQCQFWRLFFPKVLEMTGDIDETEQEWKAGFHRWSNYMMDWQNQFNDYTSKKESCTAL
AChE, sequence (P23795 31-613): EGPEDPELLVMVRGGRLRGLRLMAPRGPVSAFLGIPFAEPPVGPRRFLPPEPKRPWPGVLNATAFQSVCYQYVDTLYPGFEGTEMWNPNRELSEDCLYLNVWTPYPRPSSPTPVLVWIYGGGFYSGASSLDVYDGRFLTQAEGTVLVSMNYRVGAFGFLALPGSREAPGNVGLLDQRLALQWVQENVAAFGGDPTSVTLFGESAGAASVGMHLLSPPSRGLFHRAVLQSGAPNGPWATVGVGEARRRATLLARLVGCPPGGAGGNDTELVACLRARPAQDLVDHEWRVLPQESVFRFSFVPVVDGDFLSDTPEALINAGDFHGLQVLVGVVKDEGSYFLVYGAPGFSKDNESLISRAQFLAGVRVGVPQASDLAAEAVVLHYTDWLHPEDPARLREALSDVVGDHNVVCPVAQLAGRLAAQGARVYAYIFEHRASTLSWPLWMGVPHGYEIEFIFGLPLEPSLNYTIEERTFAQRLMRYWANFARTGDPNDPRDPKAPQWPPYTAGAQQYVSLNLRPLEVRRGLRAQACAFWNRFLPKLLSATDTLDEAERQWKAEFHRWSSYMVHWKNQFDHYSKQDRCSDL

## O=c1[nH]c(=O)n(C2CC(O)C(COP3(=O)OCc4ccccc4O3)O2)cc1[125I] (mixture of isomers) [Compound 3]
[1]; AD mouse
  clusters of radioactivity in brain of AD mice: large clusters of radioactivity
[1]; control mouse
  clusters of radioactivity in brains of control mice: practically absent
[2]; 48 hours after IV
  brain uptake AD mice compared to wildtype controls: ~3 times
[2]; >12-months old AD mice, IV 10 μCi, 48 hours
  brain uptake in AD mice: 0.085±0.008 % ID/g
[2]; control mice, IV 10 μCi, 48 hours
  brain uptake in matching wildtype controls: 0.030±0.011 % ID/g

## CC(C)(C)c1cc(C(C)(C)C)c2c(c1F)COP(=O)(OCC1OC(n3cc([125I])c(=O)[nH]c3=O)CC1O)O2 (stereo not drawn) [Compound 2a]
[3]
  binding to bovine serum (AChE, no BChE): complete absence
[4]
  activity in head of AD mouse, planar image: accumulation of 2a in the head of the AD mouse
[4]; AD mice, IV, all time points, 6 mice per time point
  percent injected dose per gram brain, 2a versus 2b: significantly higher
[5]
  solubility in buffers and other physiologically appropriate solvents: low

## CC(C)(C)c1cc(C(C)(C)C)c2c(c1F)COP(=O)(OCC1OC(n3cc([125I])c(=O)[nH]c3=O)CC1O)O2 (stereo not drawn) [Compound 2b]
[4]
  activity in head of AD mouse, planar image: only the background level of activity

## O=c1[nH]c(=O)n(C2CC(O)C(COP3(=O)OCc4ccccc4O3)O2)cc1[125I] (stereo not drawn) [Compound 3a]
[6]
  log P: 0.623
  Partition coefficient P avg (std dev): 4.19 (0.12)

## O=c1[nH]c(=O)n(C2CC(O)C(COP3(=O)OCc4ccccc4O3)O2)cc1[125I] (stereo not drawn) [Compound 3b]
[6]
  log P: 0.652
  Partition coefficient P avg (std dev): 4.49 (0.25)

## Cc1cccc2c1OP(=O)(OCC1OC(n3cc([125I])c(=O)[nH]c3=O)CC1O)OC2 (stereo not drawn) [Compound 4a]
[6]
  log P: 0.857
  Partition coefficient P avg (std dev): 7.19 (0.37)

## Cc1cccc2c1OP(=O)(OCC1OC(n3cc([125I])c(=O)[nH]c3=O)CC1O)OC2 (stereo not drawn) [Compound 4b]
[6]
  log P: 0.846
  Partition coefficient P avg (std dev): 7.02 (0.34)
